The assay deals with T1, cereblon (CRBN)—DNA damage protein 1 (DDB1) complex (Homo sapiens, UniProt Q96SW2).
T1 construct: encoding amino acid residues 1 to 442 (Uniprot Q96SW2); hexahistidine (N); thrombin cleavage site (N); made in house; host or cells: Sf9 insect cells (baculovirus co-infection)
Nature of the assay: Cereblon HTRF binding assay. The source says:
The synthesized sequence was designed to encode an N-terminal hexahistidine tag, a thrombin cleavage site, an AviTag™ and a tobacco etch virus protease (TEV) cleavage site followed by the CBRN sequence. The resulting protein sequence is listed below.
The synthesized sequence was designed to encode an N-terminal hexahistidine tag, a tobacco etch virus protease (TEV) cleavage site followed by the DDB1 sequence. […] The linker amino acid residues are underlined and shown in italics.
Baculovirus production of CBRN and DDB1: Recombinant bacmid and P2 virus of CBRN and DDB1 was generated according to the Bac-to-Bac Baculovirus Expression System manual (ThermoFisher Scientific).
Protein Purification: Protein purification was initiated by thawing cells (resuspended in Lysis buffer) at r.t. Once thawed, NaCl was added to a final concentration of 200 mM, followed by 0.01 μL/mL Benzonase™ and the lysate was incubated with slow stirring for 20 minutes. After the freeze-thaw lysis, the whole cell lysate was centrifuged at 48 000 g for 45 minutes and all following purification steps were done on ice or in cold-room. Supernatant (cell lysate) was mixed with 1 mL/50 mL lysate Ni Sepharose™ 6 Fast Flow (Cytiva) pre-equilibrated with Wash buffer (50 mM Tris-Cl pH 8, 20 mM Imidazole, 500 mM NaCl, 10% Glycerol, 1 mM TCEP) and incubated with slow stirring for 1 h. The mix was loaded in a 70 mL open gravity flow column, washed with 10 bed volumes of Wash buffer, and stepwise eluted with 300 mM imidazole in Wash buffer. […] After biotinylation, the CBRN/DDB1 complex was purified by Size Exclusion Chromatography on a HiLoad™ 26/60 Superdex™ 200 column equilibrated in SEC buffer (50 mM HEPES pH 7.5, 200 mM NaCl, 5% glycerol, 1 mM TCEP) before flash-freezing in liquid nitrogen and storage at −80° C.
The assay mixture in a total volume of 4 μL consists of 50 mM Tris-HCl at pH 7.5, 100 mM NaCl, 0.01% Pluronic F127, 1 mM TCEP, 500 μM EDTA, 0.2 nM CRBN-DDB1, 0.2 nM terbium cryptate labeled streptavidin, and 2 nM Cyanine 5-labeled lenalidomide as the probe. […] Reagents were dispensed into the 384-well assay microplate using a Certus Flex liquid dispenser. After incubation for 2 h at r.t., the assay plates were read on a PHERAstar FSX plate reader (BMG Labtech) in the HTRF mode. The raw data from PHERAstar was directly imported into Genedata Screener for analysis. […] The ratio was normalized to positive and negative controls on the same plates to calculate percent inhibition: I %=(I−NC)/(PC−NC), where I are readings from the compound treated well, NC and PC are average readings from negative control wells and positive control wells, respectively. IC50 values were obtained by fitting the I % vs. compound concentration [I] to I %=S0+(SInf−S0)/(1+((IC50/[I])^n)), where S0 is the fitted activity level at zero concentration of test compound, SInf is the fitted activity level at […] concentration of test compound, and n is the hill coefficient of the curve.
The IC50 values reported below are the calculated mean result of one or more experiments.

T1 sequence (Q96SW2 with tags, fused parts or gaps): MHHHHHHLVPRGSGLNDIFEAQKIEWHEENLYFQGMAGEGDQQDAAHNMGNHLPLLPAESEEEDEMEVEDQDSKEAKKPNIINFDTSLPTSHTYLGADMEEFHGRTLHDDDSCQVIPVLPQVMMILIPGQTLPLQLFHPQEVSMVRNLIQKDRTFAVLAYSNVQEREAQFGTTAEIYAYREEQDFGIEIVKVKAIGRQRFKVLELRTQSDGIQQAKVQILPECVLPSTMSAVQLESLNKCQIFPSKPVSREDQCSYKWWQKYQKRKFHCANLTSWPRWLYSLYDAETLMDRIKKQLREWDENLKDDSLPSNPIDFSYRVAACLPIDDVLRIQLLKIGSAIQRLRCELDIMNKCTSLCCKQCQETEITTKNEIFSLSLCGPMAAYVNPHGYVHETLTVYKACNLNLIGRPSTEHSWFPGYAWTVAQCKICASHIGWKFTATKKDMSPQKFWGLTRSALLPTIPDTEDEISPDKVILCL

As to `O=C1CCN(c2ccc3nc[nH]c3c2)C(=O)N1` [Example 41, 1-(1H-Benzo[d]imidazol-6-yl)dihydropyrimidine-2,4 (1H,311)-dione], the IC50 came out at 1170 nM.

As to `O=C1CCN(c2ccc3cn[nH]c3c2)C(=O)N1` [Example 42, 1-(1H-Indazol-6-yl)dihydropyrimidine-2,4 (1H,3H)-dione], the IC50 was found to be 2110 nM.

`O=C1CCN(c2cccc3c2CNC3=O)C(=O)N1` [Example 43, 1-(1-Oxoisoindolin-4-yl)dihydropyrimidine-2,4 (1H,3H)-dione] displayed a concentration for half-maximal inhibition (IC50) of 3630 nM.

Take `O=C1CCN(c2ccc3c(c2)C(=O)NC3)C(=O)N1` [Example 44, 1-(3-Oxoisoindolin-5-yl)dihydropyrimidine-2,4 (1H,3H)-dione]: the IC50 came out at 8470 nM.

`O=C1NC(=O)N(c2ccc3cc[nH]c3c2)CC1F` (stereo not drawn) [Example 45, 5-Fluoro-1-(1H-indol-6-yl)dihydropyrimidine-2,4 (1H,3H)-dione] registered an IC50 of 967 nM.

As to `O=C1CCN(c2ccc3[nH]c(=O)oc3c2)C(=O)N1` [Example 46, 1-(2-Oxo-2,3-dihydrobenzo[d]oxazol-6-yl)dihydropyrimidine-2,4 (1H,3H)-dione], the IC50 stood at 3750 nM.

For the compound `O=C1CCN(c2ccc3oc(=O)[nH]c3c2)C(=O)N1` [Example 47, 1-(2-Oxo-2,3-dihydrobenzo[d]oxazol-5-yl)dihydropyrimidine-2,4 (1H,3H)-dione], the IC50 was determined as 3060 nM.

For the compound `Cc1c(-n2ccc(=O)[nH]c2=O)cnc2cc[nH]c12` [Example 48, 1-(7-Methyl-1H-pyrrolo[3,2-b]pyridin-6-yl)pyrimidine-2,4 (1H,3H)-dione], the IC50 amounted to 1970 nM.

`Cc1c(N2CCC(=O)NC2=O)cnc2cc[nH]c12` [Example 49, 1-(7-Methyl-1H-pyrrolo[3,2-b]pyridin-6-yl)dihydropyrimidine-2,4 (1H,3H)-dione] gave a 50% inhibitory concentration (IC50) of 124 nM.

`O=C1CCN(c2cc(F)c3cc[nH]c3c2)C(=O)N1` [Example 50, 1-(4-Fluoro-1H-indol-6-yl)dihydropyrimidine-2,4 (1H,3H)-dione] yielded an IC50 of 226 nM.

As to `Cc1cc(N2CCC(=O)NC2=O)cc2[nH]ccc12` [Example 51, 1-(4-Methyl-1H-indol-6-yl)dihydropyrimidine-2,4 (1H,3H)-dione], the IC50 is 511 nM.

As for `COc1cc(N2CCC(=O)NC2=O)cc2[nH]ccc12` [Example 52, 1-(4-Methoxy-1H-indol-6-yl)dihydropyrimidine-2,4 (1H,3H)-dione], the IC50 is 445 nM.

`O=C1CCN(c2cc(Cl)c3cc[nH]c3c2)C(=O)N1` [Example 53, 1-(4-Chloro-1H-indol-6-yl)dihydropyrimidine-2,4 (1H,3H)-dione] displayed an IC50 of 244 nM.

On to `O=C1CCN(c2ccc3cc[nH]c3c2F)C(=O)N1` [Example 54, 1-(7-Fluoro-1H-indol-6-yl)dihydropyrimidine-2,4 (1H,3H)-dione], for which the IC50 was 188 nM.

For the compound `O=C1CCN(c2ccc3[nH]ccc3c2)C(=O)N1` [Example 56, 1-(1H-Indol-5-yl)dihydropyrimidine-2,4 (1H,3H)-dione], the IC50 was 341 nM.

In turn, `Cc1c(N2CCC(=O)NC2=O)ccc2cc[nH]c12` [Example 57, 1-(7-Methyl-1H-indol-6-yl)dihydropyrimidine-2,4 (1H,3H)-dione] displayed an IC50 of 96 nM.

`Cc1c(N2CCC(=O)NC2=O)c(F)cc2cc[nH]c12` [Example 58, 1-(5-Fluoro-7-methyl-1H-indol-6-yl)dihydropyrimidine-2,4 (1H,3H)-dione] returned an IC50 of 288 nM.

Compound `O=C1CCN(c2cc3[nH]ccc3cc2F)C(=O)N1` [Example 60, 1-(5-Fluoro-1H-indol-6-yl)dihydropyrimidine-2,4 (1H,3H)-dione] had an IC50 of 444 nM.

As to `COc1cc2cc[nH]c2cc1N1CCC(=O)NC1=O` [Example 61, 1-(5-Methoxy-1H-indol-6-yl)dihydropyrimidine-2,4 (1H,3H)-dione], the IC50 was 1510 nM.

Regarding `COc1c(N2CCC(=O)NC2=O)ccc2cc[nH]c12` [Example 62, 1-(7-Methoxy-1H-indol-6-yl)dihydropyrimidine-2,4 (1H,3H)-dione], the IC50 was determined as 2140 nM.

`O=C1CCN(c2c(F)ccc3[nH]ccc23)C(=O)N1` [Example 63, 1-(5-Fluoro-1H-indol-4-yl)dihydropyrimidine-2,4 (1H,3H)-dione] showed an IC50 of 235 nM.

Compound `O=C1CCN(c2c(Cl)ccc3[nH]ccc23)C(=O)N1` [Example 64, 1-(5-Chloro-1H-indol-4-yl)dihydropyrimidine-2,4 (1H,3H)-dione] yielded an IC50 of 78 nM.

`O=C(O)Cc1c[nH]c2cc(N3CCC(=O)NC3=O)ccc12` [Example 65, 2-(6-(2,4-Dioxotetrahydropyrimidin-1 (2H)-yl)-1H-indol-3-yl)acetic acid] displayed an IC50 of 755 nM.

On to `CNC(=O)Cc1c[nH]c2cc(N3CCC(=O)NC3=O)ccc12` [Example 66, 2-(6-(2,4-Dioxotetrahydropyrimidin-1 (2H)-yl)-1H-indol-3-yl)-N-methylacetamide], for which the IC50 came to 264 nM.

As to `CNC(=O)Cc1cc2ccc(N3CCC(=O)NC3=O)cc2[nH]1` [Example 67, 2-(6-(2,4-Dioxotetrahydropyrimidin-1 (2H)-yl)-1H-indol-2-yl)-N-methylacetamide], the IC50 stood at 974 nM.

Consider `CNC(=O)Cn1ccc2ccc(N3CCC(=O)NC3=O)cc21` [Example 68, 2-(6-(2,4-Dioxotetrahydropyrimidin-1 (2H)-yl)-1H-indol-1-yl)-N-methylacetamide], for which the IC50 came to 2210 nM.

The compound `CNC(=O)CCn1ccc2ccc(N3CCC(=O)NC3=O)cc21` [Example 69, 3-(6-(2,4-Dioxotetrahydropyrimidin-1 (2H)-yl)-1H-indol-1-yl)-N-methylpropanamide] showed an IC50 of 3540 nM.

`CNC(=O)Cn1ccc2c(N3CCC(=O)NC3=O)cccc21` [Example 70, 2-(4-(2,4-Dioxotetrahydropyrimidin-1 (2H)-yl)-1H-indol-1-yl)-N-methylacetamide] returned a half-inhibitory concentration (IC50) of 1010 nM.

As to `O=C1CCN(c2ccc3c(N4CCNCC4)c[nH]c3c2)C(=O)N1` [Example 71, 1-(3-(Piperazin-1-yl)-1H-indol-6-yl)dihydropyrimidine-2,4 (1H,3H)-dione], the IC50 worked out at 1130 nM.

In turn, `CN1CCN(c2c[nH]c3cc(N4CCC(=O)NC4=O)ccc23)CC1` [Example 72, 1-(3-(4-Methylpiperazin-1-yl)-1H-indol-6-yl)dihydropyrimidine-2,4 (1H,3H)-dione] registered a half-inhibitory concentration (IC50) of 926 nM.

On to `CC(=O)N1CCN(c2c[nH]c3cc(N4CCC(=O)NC4=O)ccc23)CC1` [Example 73, 1-(3-(4-Acetylpiperazin-1-yl)-1H-indol-6-yl)dihydropyrimidine-2,4 (1H,3H)-dione], for which the 50% inhibitory concentration (IC50) is 963 nM.

As to `Cn1cc(N2CCNCC2)c2ccc(N3CCC(=O)NC3=O)cc21` [Example 74, 1-(1-Methyl-3-(piperazin-1-yl)-1H-indol-6-yl)dihydropyrimidine-2,4 (1H,3H)-dione], the IC50 amounted to 3810 nM.

For `CN1CCN(c2cn(C)c3cc(N4CCC(=O)NC4=O)ccc23)CC1` [Example 75, 1-(1-Methyl-3-(4-methylpiperazin-1-yl)-1H-indol-6-yl)dihydropyrimidine-2,4 (1H,3H)-dione], the IC50 is 4040 nM.

For `Cn1cc(N2CCNCC2)c2cc(N3CCC(=O)NC3=O)ccc21` [Example 76, 1-(1-Methyl-3-(piperazin-1-yl)-1H-indol-5-yl)dihydropyrimidine-2,4 (1H,3H)-dione], the IC50 was 1920 nM.

Turning to `O=C1CCN(c2ccc3[nH]cc(N4CCNCC4)c3c2)C(=O)N1` [Example 77, 1-(3-(Piperazin-1-yl)-1H-indol-5-yl)dihydropyrimidine-2,4 (1H,3H)-dione], the IC50 was found to be 562 nM.

Regarding `CN1CCN(c2c[nH]c3ccc(N4CCC(=O)NC4=O)cc23)CC1` [Example 78, 1-(3-(4-Methylpiperazin-1-yl)-1H-indol-5-yl)dihydropyrimidine-2,4 (1H,3H)-dione], the IC50 was 1870 nM.

The record behind these values is patent publication US20230374007A1, “COMPOUNDS AND THEIR USE IN TREATING CANCER” (AstraZeneca AB, priority 2020, published 2023).
